Measurements published in patent US20060217390A1, “Cycloalkl, aryl and heteroaryl amino isothiazoles for the treatment of Hepatitis C virus” (priority 2005, published 2006).
pEC50, pIC50: −log10 of the molar value. Like-named read-outs stand apart in the source and are kept apart here.

What was measured:
[1] = system: HCV Con1 subgenomic replicon in Huh-7 cells (NK/luc-ubi-neo); experiment: HCV replicon assay (luciferase reporter); assay type: cell-based; settings: anti-HCV activity, class symbols; read-out: Range of EC50 in HCV replicon assay
Method: A human hepatoma cell line (Huh-7) containing replicating HCV Con1 subgenomic replicon with a luciferase reporter gene (luc-ubi-neo) was used to evaluate anti-HCV activity of the compounds. In this assay, the level of luciferase signal correlates directly with the viral RNA replication. The HCV replicon-reporter cell line (NK/luc-ubi-neo) was cultured in DMEM medium supplemented with 10% fetal bovine serum and 0.5 mg/ml Geneticin (G418). Cells were maintained in a subconfluent state to ensure high levels of HCV replicon RNA synthesis.
To evaluate the antiviral activity of compounds, serial dilutions were prepared with concentrations ranging from 0.14 to 300 μM. Diluted compounds were transferred to a 96-well plate followed by the addition of replicon cells (6000 cells per well). Cells were incubated with the compounds for 48 hours after which luciferase activity was measured.

Huh-7 cells = system: Huh-7 cells
Excerpt: A Huh-7 cell line carrying a luciferase reporter gene (driven by a HIV LTR promoter) stably integrated into the chromosome was used to analyze the cytotoxic effect of the selected compounds. This cell line (LTR-luc) was maintained in DMEM medium with 10% FBS. Design of the cytotoxicity assay was similar to that of the HCV replicon assay.

[2] = system: parental replicon cells (I389/NS3-3); experiment: Sensitivity of parental (wild-type) replicon cells, HCV replicon RNA by quantitative RT-PCR; assay type: cell-based; settings: Wild-type replicon cell line
Method: (§1) A replicon-containing cell line (I389/NS3-3) was used to select the resistant replicons against Compound 1 (Lohmann et al., Science 285:110-113, 1999). Replicon cells were plated in a 100 mm dish, under a subconfluent condition (approximately at 40% confluency). After 24 hours, Compound 1 was added to the cells with the final concentration of 2 μM in the medium containing 1 mg of G418 per ml. After 3 weeks, colonies of cells resistant to Compound 1 were isolated and expanded. Three independent cell lines (w1, w3 and w4) with growth rate similar to that of the parental replicon cells were selected to test for their sensitivity to Compound 1.
(§2) To confirm that viral RNAs in the selected cell lines were resistant to Compound 1, the cells were treated with the compound with concentrations from 0.05 to 5 μM. After 72-hours of treatment, cells were lysed and the cell lysates were diluted with RNase-free water, from which 5 μl was used to quantify the HCV replicon RNA by using real-time quantitative reverse transcriptase (RT) PCR assay (Cheney et al., Virology 297:298-306, 2002). Same quantitative RT-PCR protocol was used to determine the level of the cellular glyceraldhehyde-3-phosphate dehydrogenase (GAPDH) RNA in the same cell lysate, which served as an internal control to normalize the difference of total RNAs. To calculate the EC50 values of Compound 1 against the resistant cell lines, the relative cycle threshold (CT) for the HCV and GAPDH was determined. […] Identification of the Molecular Target

[3] = system: resistant replicon cell lines (w1, w3 and w4); experiment: Sensitivity of resistant replicon cell lines, HCV replicon RNA by quantitative RT-PCR; assay type: cell-based; settings: for pEC50: Hepatitis C virus, 72 h, HCV replicon RNA by RT-PCR, 72 hours of treatment; for Fold over wild-type: fold of EC50
Method: as §1, §2

NS5B polymerase = molecular target: T1, NS5B polymerase (Hepatitis C virus genotype 1b, UniProt Q9WMX2, C2735Y); experiment: Identification of the molecular target (sequencing of resistant replicons); set-up: species or system HCV; settings: eight cDNA clones of three resistant cell lines (w1, w3 and w4)
T1 construct: a single nucleotide change in the region of viral NS5B polymerase; expressed in transfected cells; host or cells: HCV subgenomic replicon cells (parental and Compound 1-resistant lines w1, w3, w4)
T1 sequence (Q9WMX2 2420-3010 C2735Y): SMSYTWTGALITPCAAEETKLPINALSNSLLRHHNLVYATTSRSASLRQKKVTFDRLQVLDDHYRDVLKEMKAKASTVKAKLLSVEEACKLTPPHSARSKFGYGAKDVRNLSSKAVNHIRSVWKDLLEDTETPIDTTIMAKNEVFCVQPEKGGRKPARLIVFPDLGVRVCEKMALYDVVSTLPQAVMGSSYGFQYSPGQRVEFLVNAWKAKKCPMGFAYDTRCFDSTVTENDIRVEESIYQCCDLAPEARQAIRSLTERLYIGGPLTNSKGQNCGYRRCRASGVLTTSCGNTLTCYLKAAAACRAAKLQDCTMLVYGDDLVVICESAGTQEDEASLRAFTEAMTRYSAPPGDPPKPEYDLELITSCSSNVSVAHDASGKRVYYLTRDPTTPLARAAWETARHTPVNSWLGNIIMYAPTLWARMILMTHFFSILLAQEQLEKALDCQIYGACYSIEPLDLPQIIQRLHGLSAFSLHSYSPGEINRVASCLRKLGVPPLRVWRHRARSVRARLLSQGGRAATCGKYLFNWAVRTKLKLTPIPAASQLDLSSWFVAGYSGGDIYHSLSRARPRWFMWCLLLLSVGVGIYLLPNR
Method: To determine the targeted viral gene of Compound 1, total RNA was isolated from the resistant cell lines and from the parental replicon cells. The cDNA fragment encoding the HCV nonstructural proteins (NS3-NS5B) was amplified from the total cellular RNA by using a Thermoscript RT-PCR kit (Invitrogen). The cDNA fragments were cloned into pCR4-TOPO vector by using a TOPO TA cloning kit (Invitrogen). The entire DNA sequence of the HCV nonstructural coding region was determined for multiple independent cDNA clones.
Eight different cDNA clones were generated from three independently cell lines selected by Compound 1 (cell lines w1, w3 and w4) and three cDNA clones from the parental cell line.

HCV replicase complexes = molecular target: T2, HCV replicase complexes (Hepatitis C virus genotype 1b, UniProt Q9WMX2); experiment: In vitro HCV replicase complex assay; assay type: biochemical; settings: crude membrane fraction of I389/NS3-3 replicon cells
T2 construct: viral non-structural proteins (NS3, NS4A, NS4B, NS5A and NS5B); expressed in transfected cells; host or cells: HCV subgenomic replicon cell line (I389/NS3-3)
T2 sequence (Q9WMX2 2420-3010, one chain of several): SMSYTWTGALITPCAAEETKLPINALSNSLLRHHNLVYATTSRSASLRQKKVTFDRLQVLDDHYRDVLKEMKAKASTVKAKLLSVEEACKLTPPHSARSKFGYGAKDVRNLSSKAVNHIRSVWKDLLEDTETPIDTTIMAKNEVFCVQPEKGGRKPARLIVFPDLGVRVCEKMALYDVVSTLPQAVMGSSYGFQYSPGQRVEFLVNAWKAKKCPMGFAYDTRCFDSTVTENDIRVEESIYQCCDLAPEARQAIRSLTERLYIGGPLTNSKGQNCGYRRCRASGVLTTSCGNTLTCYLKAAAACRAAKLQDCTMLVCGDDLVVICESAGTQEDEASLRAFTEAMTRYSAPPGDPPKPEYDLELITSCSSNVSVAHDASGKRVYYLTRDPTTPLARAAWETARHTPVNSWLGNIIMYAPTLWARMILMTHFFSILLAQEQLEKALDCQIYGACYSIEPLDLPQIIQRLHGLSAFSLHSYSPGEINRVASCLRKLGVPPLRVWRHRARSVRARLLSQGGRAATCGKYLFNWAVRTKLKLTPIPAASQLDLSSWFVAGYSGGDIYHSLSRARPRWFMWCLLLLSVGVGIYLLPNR
Method: Crude membrane fraction containing the replicase complexes (RC) was isolated from the HCV subgenomic replicon cell line (I389/NS3-3) (Lohmann et al., Science 285:110-113, 1999) through Dounce homogenization and high-speed centrifugation (Lai et al., J. Virol. 73:2295-2300). Standard assay mixtures contained 50 mM HEPES (pH 7.3), 10 mM KCl, 10 mM MgCl2, 20 units of ribonuclease inhibitor, 10 μg/ml actinomycin D, 0.5 mM of ATP, GTP, CTP, 10 μCi of [α-^33P] UTP and 0.5 μl of the membrane fraction in a total volume of 20 μl. To determine the inhibitory effect of compounds on the HCV replicase complexes, pre-incubation of the RC membrane fraction with tested compounds was performed in a reaction mixture at 4° C. for 15 minutes. The reaction was then initiated by the addition of the radiolabeled UTP and cold nucleotides and incubated at 30° C. for 1 hour. Products were extracted with phenol/chloroform, precipitated with ethanol, and separated on a 1% agarose gel. After electrophoresis, the gel was dried prior to autoradiography. Radioactivity incorporated into viral RNA was quantitated by using a Phosphorimager (Amersham Biosciences Corp., Piscataway, N.J.) and was used to determine the IC50 value. A number of the exemplary compounds were potent inhibitors that blocked viral RNA synthesis catalyzed by HCV replicase complexes, with IC50 values in the nM range (Table 2).

[4] = read-out: Range of CC50 in cytotoxicity assay, cytotoxicity, class symbols

SMILES | pEC50 [1] | CC50 (Huh-7 cells) | CC50 (Huh-7 cells; [4]) | further results
N#Cc1c(Nc2ccnc(Cl)c2)s[nH]c1=O | 4.30 to 5.00 | > 50 µM |  | 
N#Cc1c(Nc2cc(Cl)cc(Cl)c2)s[nH]c1=O [Compound 1] |  |  |  | pEC50 ([2]; Hepatitis C virus, HCV replicon RNA by RT-PCR, 72 hours of treatment): 7.15; Fold over wild-type ([2]; fold of EC50): 1; pEC50 ([3]; resistant cell line W1): 5.43; pEC50 ([3]; resistant cell line W3): 5.69; pEC50 ([3]; resistant cell line W4): 5.34; Fold over wild-type ([3]; resistant cell line W1): 52; Fold over wild-type ([3]; resistant cell line W3): 29; Fold over wild-type ([3]; resistant cell line W4): 66; mutation present in cDNA clones of cell lines selected by the compound (NS5B polymerase): cysteine at position 316 of NS5B polymerase to a tyrosine residue
N#Cc1c(Nc2ccc(Br)c(Cl)c2)s[nH]c1=O | > 6.00 | > 50 µM |  | 
N#Cc1c(Nc2ccc(S(=O)(=O)Nc3ccccc3)cc2)s[nH]c1=O | < 4.30 | > 50 µM |  | 
CN(C)c1ccc(Nc2s[nH]c(=O)c2C#N)c2ccccc12 | < 4.30 |  | > 50 µM | 
N#Cc1c(Nc2ccc(C(=O)c3ccccc3)cc2)s[nH]c1=O | 4.30 to 5.00 |  | > 50 µM | 
N#Cc1c(Nc2ccc(Cc3ccccc3)cc2)s[nH]c1=O | < 4.30 | > 50 µM |  | 
N#Cc1c(Nc2ccc(I)c(Cl)c2)s[nH]c1=O | > 6.00 |  | > 50 µM | 
N#Cc1c(NCCc2ccc(O)cc2)s[nH]c1=O | < 4.30 | > 50 µM |  | 
CCCC1CCC(c2ccc(Nc3s[nH]c(=O)c3C#N)cc2)CC1 (centres unmarked) | 5.00 to 6.00 |  | < 50 µM | 
N#Cc1c(O)nsc1Nc1cc(C(F)(F)F)cc(C(F)(F)F)c1 |  |  |  | pIC50 (HCV replicase complexes): 6.60 to 7.00
COC(=O)c1cccc(Nc2s[nH]c(=O)c2C#N)c1 | < 4.30 | > 50 µM |  | 
N#Cc1c(Nc2ccccc2C(F)(F)F)s[nH]c1=O | 4.30 to 5.00 | > 50 µM |  | 
N#Cc1c(Nc2ccc(Br)cc2)s[nH]c1=O |  |  |  | pIC50 (HCV replicase complexes): > 7.30
COC(=O)c1ccc(Nc2s[nH]c(=O)c2C#N)cc1 | 4.30 to 5.00 |  | > 50 µM | 
N#Cc1c(Nc2ccc(I)cc2Cl)s[nH]c1=O | 5.00 to 6.00 |  | < 50 µM | 
N#Cc1c(Nc2cc(Br)cc(C(F)(F)F)c2)s[nH]c1=O | > 6.00 |  | > 50 µM | 
COC(=O)c1ccccc1Nc1s[nH]c(=O)c1C#N | < 4.30 | > 50 µM |  | 
N#Cc1c(NC2CCc3ccccc32)s[nH]c1=O (centres unmarked) | 5.00 to 6.00 | > 50 µM |  | 
CN(C)c1ccc2ccccc2c1Nc1s[nH]c(=O)c1C#N | < 4.30 |  | > 50 µM | 
N#Cc1c(Nc2ccc(Br)c(F)c2)s[nH]c1=O | > 6.00 |  | > 50 µM | 
N#Cc1c(NCC2CCCO2)s[nH]c1=O (centres unmarked) | < 4.30 | > 50 µM |  | 
N#Cc1c(NC23CC4CC(CC(C4)C2)C3)s[nH]c1=O | 5.00 to 6.00 | > 50 µM |  | 
N#Cc1c(Nc2cc(C(F)(F)F)cc(C(F)(F)F)c2)s[nH]c1=O | 5.00 to 6.00 |  | > 50 µM | 
N#Cc1c(NCC2CCCCC2)s[nH]c1=O | 5.00 to 6.00 | > 50 µM |  | 
N#Cc1c(Nc2ccc(F)cc2)s[nH]c1=O | 4.30 to 5.00 | > 50 µM |  | 
N#Cc1c(Nc2ccc(Br)cn2)s[nH]c1=O | 4.30 to 5.00 |  | > 50 µM | 
